Laboratory results reported in article PMC10060577, “Synthesis and physicochemical characterization of acyl myricetins as potential anti-neuroexocytotic agents” (Scientific Reports, 2023).
Like-named read-outs stand apart in the source and are kept apart here.

What was measured:
[1] = system: hen egg chorioallantoic membrane; assay: HET-CAM test (hen egg chorioallantoic membrane irritancy); type: in vivo, chicken; details: 2 mL of 1 mg·mL^−1 solution, images 1 min after addition; for HET-CAM Score: graded from 0 (no irritation) to 3 (strong irritation)
Protocol: The HET-CAM is used for detecting ophthalmic irritancy in vivo[35]. For the HET-CAM, fertilized eggs were obtained from a local market in Korea and incubated for 10 days (37.5 °C and 45% humidity), by maintaining autorotation at 90°·h^−1 to ensure proper development and viability of the embryos. After incubation, the upper shell was cut in a circular shape, without damaging the inner membrane. Immediately after cutting, the inner membrane was carefully removed with forceps, to avoid injury to the blood vessels, and 2 mL of acyl myricetin solutions were placed on the CAM. Prior to the treatment, the solutions were prepared by mixing 1.9 mL of PBS and 100 μL of DMSO dissolving acyl myricetins, to prevent sedimentation of the crystalline solute. A mixture of PBS (1.9 mL) and DMSO (100 μL), and 1 M NaOH aqueous solution were used as negative and positive controls, respectively. Next, by turning an LED flashlight at the bottom of eggshell, CAM images were obtained 1 min after samples addition.
Based on the CAM images, the severity of any hemorrhage, blood-coagulation, and hyperemia was graded from 0 (no irritation) to 3 (strong irritation) according to a previously developed scoring method. We analyzed the CAM images using ImageJ (http://rsb.info.nih.gov/ij/) to prevent arbitrary judgments with respect to the previous scoring method; then we selected blood vessels in the CAM images, and measured hemorrhage, blood-coagulation, and hyperemia as follows. First, the CAM images were loaded individually into ImageJ, cropped to a fixed size to exclude the shell, and converted to grayscale. The CAM images, grayscaled with red stack, were adjusted using the MidGrey method, and the area fraction (%Area) values of black pixels in the adjusted CAM images were measured and recorded.

[2] = Determination of 1-octanol/water partition coefficients (logP); type: physicochemical; details: 1-octanol/water (DDW); 1-octanol/DDW, 25 °C
Protocol: Values for logP were determined to quantify the lipophilicity or hydrophilicity of the separated acyl myricetins, using the previously reported method with slight modifications. After the addition of 1-octanol (500 μL) into 2 mL micro-tubes containing 1 mg of the separated acyl myricetins, the micro-tubes were vortexed for 1 min, followed by sonication (bath-type) for 5 min, and then 500 μL of DDW was added to the tubes. Next, the mixed solutions in the tubes were vortexed again for 5 min and phase-separated by centrifugation (3000 relative centrifugal force for 10 min at 25 °C). The 40 μL of upper layer (1-octanol) and 100 μL of lower layer (DDW) were collected and diluted with 1.96 mL of 1-octanol and 100 μL of DMSO, respectively. The solutes dissolved in the upper and lower layers were quantified based on the standard curves obtained from the UV/Vis-light absorbance spectra (250‒600 nm) using a microplate reader (Synergy H1; BioTek Instruments Inc., VT, USA; measuring interval of 3 nm, at 25 °C). Finally, the logP values were calculated as log(coctanol/cDDW), where coctanol and cDDW are the concentrations of the solutes in the upper and lower layers, respectively.

[3] = Stability assessment against oxidation in aqueous solution by UV/Vis absorbance spectra; type: physicochemical; details: PBS pH 7, 37 °C; for decay rate constant k: absorbance at 376 nm, exponential decay-plateau fitting
Protocol: To assess their stability in an aqueous environment at pH 7 and 37 °C, UV/Vis-light absorbance spectra of the separated acyl […] obtained using the Synergy H1 (BioTek Instruments Inc.; measuring interval of 3 nm, 25 °C), at a wavelength-range of 250-600 nm[34]. One hundred microliters of the separated esters (20 μg·mL^-1), dissolved in DMSO, were mixed in a micro-tube (2 mL) with 1.9 mL of phosphate buffered saline (PBS), pre-adjusted to pH 7 with 1 M HCl aqueous solution. After covering with a lid, the mixture was immediately incubated for 18 h in a heating shaking drybath (S08040; Thermo Scientific) at 37 °C, shaken at 700 rpm. […] The amount of non-oxidized acyl myricetin was determined, based on the absorbance ( abs ) at a wavelength of 376 nm at incubation time ( t ). An exponential decay-plateau fitting method was employed to determine decay rate constant values ( k , s^-1) for the acyl […] follows: ln(abs/abs0)=-[…]) where abs0 is the absorbance at the initiation of incubation and tp is the time in which the left side ( -kt ) reaches the plateau constant ( p ). The non-oxidized proportion of the esters, after all the incubation, was described as e^p . Monitoring the shift of specific peaks in the spectra for the acyl […] could be important for application in food and cosmetics because this can indirectly indicate color changes in the product, which would be unwelcomed to most of the customers. Therefore, the center of gravity in the spectra of the M esters was determined as follows, in order to monitor the shift of specific peaks Centerofgravitycg=∑(absiλi)/∑(absi) where absi is the absorbance at a specific wavelength ( λi , 300-400 nm). Based on the cg estimated during the incubations, the cg shifting rate ( k1 ) was determined using the two segment linear fitting curves as follows: […]1=[…] intercepts of linear curves for the left and right sides, respectively, t1 is the time that the left side ( k1t+cg1 ) takes to become the right side ( k2t+cg2 ), and k2 is an inclination of curve toward the right side.

[4] = system: differentiated PC-12 cells; assay: Acetylcholine release assay; type: cell-based; details: 12 h incubation, read-out: EC50 (inhibition of acetylcholine release)
Protocol: PC-12 cells, obtained from Korean Cell Line Bank (KCLB, Seoul, Korea), were cultured in media containing 84% (v/v) RPMI 1640 medium, 10% (v/v) heat-inactivated horse serum, 5% (v/v) heat-inactivated FBS, and 1% (v/v) antibiotic-antimycotic (100×) solution, under humidified conditions (37 °C, 5% CO2). The culture medium was refreshed every other day. Prior to further experiments, the viability of the cells in passages 1-5 was assessed using the trypan blue exclusion test. Harvested PC-12 cells were seeded into 24-well plates coated with poly-D-[…] × 10^5 cells per well) and grown in the culture media for one day (37 °C, 5% CO2). […] GIBCO/Invitrogen) and incubated for 5 days. Then, the media were replaced with the low serum medium containing the acyl […] incubated for 12 h. Next, the acetylcholine released from the cells into the medium was quantified using an Acetylcholine Assay Kit (Fluorometric; Cell Biolabs, Inc., CA, USA) and the Synergy H1 (λex/λem, 530 nm/600 nm). Subsequently, using the Kit, the amount of released acetylcholine was determined by subtracting the basal level signal from the signal for sample-treated cells.

[5] = Neutral red uptake (NRU) cytotoxicity assay; type: cell-based; details: rat, PC-12 cells, 12 h incubation
Protocol: (§1) PC-12 cells, obtained from Korean Cell Line Bank (KCLB, Seoul, Korea), were cultured in media containing 84% (v/v) RPMI 1640 medium, 10% (v/v) heat-inactivated horse serum, 5% (v/v) heat-inactivated FBS, and 1% (v/v) antibiotic-antimycotic (100×) solution, under humidified conditions (37 °C, 5% CO2). The culture medium was refreshed every other day. Prior to further experiments, the viability of the cells in passages 1-5 was assessed using the trypan blue exclusion test. Harvested PC-12 cells (~ 80% confluency per well) were seeded into 96-well plates coated with type I-collagen and grown in the culture media for one day (37 °C, 5% CO2). Cells were treated with media containing the acyl […] incubated for 12 h. The media were aspirated, and cells were then incubated for 2 h with 0.33% (w/v) neutral red dissolved in the media. After the incubation, the neutral red media were carefully withdrawn, and cells were rinsed twice with PBS at 37 °C and dried for 1 h. Next, neutral red contained in the dried cells was extracted and solubilized with a solution of 50% (v/v) ethanol, 49% (v/v) DDW, and 1% (v/v) acetic acid, by incubating for 10 min. Absorbance of the neutral red-containing solution at 540 nm was recoded using the Synergy H1. Cell viability was determined based on the absorbance of treated cells compared to that of untreated cells (without acyl […]).

PC-12 cells = assay: Neutral red uptake (NRU) cytotoxicity assay; type: cell-based; details: 12 h incubation
Protocol: as §1

Compound | HET-CAM Description [1] | HET-CAM Score [1] | logP at 5 min [2] | decay rate constant k [3] [s⁻¹] | EC50 ([4]; Rattus norvegicus) [µM] | CC50 at 12 h [5] [µM] | CC50 (PC-12 cells) [µM] | k value fold lower than that of myricetin [3] | times by which the myricetin cg shift is faster than that of the compound [3] | EC50 [4] [µM]
[Na+].[OH-] [1 M NaOH, NaOH, reference compound] | Severe irritant | 3 | – | – | – | – | – | – | – | –
O=c1c(O)c(-c2cc(O)c(O)c(O)c2)oc2cc(O)cc(O)c12 [M, myricetin] | Non irritant | 0 | 1.34 ± 0.1 | 0.00037 | 5.36 ± 0.2 | 65.4 | 66.4 ± 10.9 | – | – | –
dipropionyl-myricetin [MP2] | Non irritant | 0 | – | 0.00013 | – | – | – | 2.7 fold | 5.1 fold | 3.58 ± 0.75
monooctanoyl-myricetin [MO1] | Non irritant | 0 | – | 0.00012 | – | – | – | ~ 3.1 fold | ~ 2.3 fold | 2.51 ± 0.89
monopropionyl-myricetin [MP1] | Non irritant | 0 | – | 0.0002 | – | – | – | ~ 1.9 fold | ~ 2.4 fold | 3.84 ± 1.08
